Where “and” joins values, the source holds several entries; their conditions need not be identical. Equal entries are not always repeated. Toxic doses and inconclusive results are not listed.
System: P388 leukemia ip, CD2F1 mice, survival T/C
Assay: NCI In Vivo Anticancer Drug Screen. Data for tumor model P388 Leukemia (intraperitoneal) in CD2F1 (CDF1) mice
Conditions: endpoint: median survival time, higher = longer survival
Summary of the method: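 Mice carrying the transplanted tumor received test compound or vehicle. Survival was recorded in each group, and the value is the treated-group measurement divided by that of the vehicle-treated control group.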

## CCC1(O)CC2CN(CCc3c([nH]c4ccccc34)C(C(=O)OC)(c3cc4c(cc3OC)N(C)C3C(O)(C(N)=O)C(O)C5(CC)C=CCN6CCC43C65)C2)C1 (stereo not drawn) (tested in a mixture with another compound)
dose: 0.06 mg/kg/injection, schedule: Q01DX009 (ip), vehicle: water
  T/C: 107 % of control
dose: 0.11 mg/kg/injection, schedule: Q04DX003 (ip), vehicle: clinical formulation
  T/C: 158 % of control
dose: 0.13 mg/kg/injection, schedule: Q04DX003 (ip), vehicle: saline
  T/C: 161 % of control
dose: 0.18 mg/kg/injection, schedule: Q04DX003 (ip), vehicle: clinical formulation
  T/C: 161 % of control
dose: 0.22 mg/kg/injection, schedule: Q01DX009 (ip), vehicle: water
  T/C: 123 % of control
dose: 0.25 mg/kg/injection, schedule: Q04DX003 (ip), vehicle: water
  T/C: 158 % of control
dose: 0.3 mg/kg/injection, schedule: Q04DX003 (ip), vehicle: clinical formulation
  T/C: 180 % of control
dose: 0.5 mg/kg/injection, schedule: Q04DX003 (ip), vehicle: clinical formulation
  T/C: 179 % of control
dose: 0.5 mg/kg/injection, schedule: Q04DX003 (ip), vehicle: saline
  T/C: 203 % of control and 216 % of control
dose: 0.5 mg/kg/injection, schedule: Q04DX003 (ip), vehicle: water
  T/C: 163 % of control
dose: 0.6 mg/kg/injection, schedule: Q01DX009 (ip), vehicle: water
  T/C: 97 % of control
dose: 0.67 mg/kg/injection, schedule: Q04DX003 (ip), vehicle: saline
  T/C: 177 % of control
dose: 0.67 mg/kg/injection, schedule: Q04DX003 (ip), vehicle: water
  T/C: 202 % of control
dose: 0.83 mg/kg/injection, schedule: Q04DX003 (ip), vehicle: clinical formulation
  T/C: 215 % of control
dose: 1.0 mg/kg/injection, schedule: Q01DX009 (ip), vehicle: water
  T/C: 100 % of control and 223 % of control
dose: 1.0 mg/kg/injection, schedule: Q04DX003 (ip), vehicle: saline
  T/C: 189 % of control and 191 % of control
dose: 1.0 mg/kg/injection, schedule: Q04DX003 (ip), vehicle: water
  T/C: 188 % of control and 200 % of control
dose: 1.08 mg/kg/injection, schedule: Q04DX003 (ip), vehicle: clinical formulation
  T/C: 170 % of control
dose: 1.3 mg/kg/injection, schedule: Q04DX003 (ip), vehicle: water
  T/C: 222 % of control
dose: 1.5 mg/kg/injection, schedule: Q04DX003 (ip), vehicle: saline
  T/C: 184 % of control
dose: 1.5 mg/kg/injection, schedule: Q04DX003 (ip), vehicle: water
  T/C: 268 % of control
dose: 1.8 mg/kg/injection, schedule: Q04DX003 (ip), vehicle: clinical formulation
  T/C: 173 % of control
dose: 2.0 mg/kg/injection, schedule: Q04DX003 (ip), vehicle: water
  T/C: 186 % of control and 283 % of control
dose: 3.0 mg/kg/injection, schedule: Q04DX003 (ip), vehicle: clinical formulation
  T/C: 95 % of control
dose: 3.0 mg/kg/injection, schedule: Q04DX003 (ip), vehicle: water
  T/C: 123 % of control

## COc1ccc(Oc2c(OC)cc(NCCCCCN3C(=O)c4ccccc4C3=O)c3ncccc23)cc1
dose: 50.0 mg/kg/injection, schedule: Q01DX009 (ip), vehicle: saline with Tween-80
  T/C: 88 % of control
dose: 100.0 mg/kg/injection, schedule: Q01DX009 (ip), vehicle: saline with Tween-80
  T/C: 97 % of control
dose: 200.0 mg/kg/injection, schedule: Q01DX009 (ip), vehicle: saline with Tween-80
  T/C: 89 % of control

## CCOC(=O)C1=NN(C)C(=O)C1
dose: 100.0 mg/kg/injection, schedule: Q01DX001 (ip), vehicle: saline with Tween-80
  T/C: 99 % of control
dose: 200.0 mg/kg/injection, schedule: Q01DX001 (ip), vehicle: saline with Tween-80
  T/C: 115 % of control
dose: 400.0 mg/kg/injection, schedule: Q01DX001 (ip), vehicle: saline with Tween-80
  T/C: 104 % of control

## CN(C)P1(=S)OCC(C(C)(C)C)CN1C (stereo not drawn)
dose: 100.0 mg/kg/injection, schedule: Q04DX003 (ip), vehicle: saline with Tween-80
  T/C: 102 % of control
dose: 200.0 mg/kg/injection, schedule: Q04DX003 (ip), vehicle: saline with Tween-80
  T/C: 112 % of control

## O=c1c2ccccc2nc2sc3nc4ccccc4c(=O)n3n12
dose: 15.0 mg/kg/injection, schedule: Q01DX005 (ip), vehicle: Klucel (hydroxypropylcellulose) (HPC)
  T/C: 94 % of control
dose: 30.0 mg/kg/injection, schedule: Q01DX005 (ip), vehicle: Klucel (hydroxypropylcellulose) (HPC)
  T/C: 91 % of control
dose: 60.0 mg/kg/injection, schedule: Q01DX005 (ip), vehicle: Klucel (hydroxypropylcellulose) (HPC)
  T/C: 88 % of control and 92 % of control
dose: 120.0 mg/kg/injection, schedule: Q01DX005 (ip), vehicle: Klucel (hydroxypropylcellulose) (HPC)
  T/C: 89 % of control
dose: 240.0 mg/kg/injection, schedule: Q01DX005 (ip), vehicle: Klucel (hydroxypropylcellulose) (HPC)
  T/C: 96 % of control

— PubChem BioAssay AID330 (DTP/NCI, 2004)
